Data on 19 compounds can be found in patent US20200268728A1, “DRUG TARGETING CANCER STEM CELL” (Sumitomo Dainippon Pharma Co., Ltd., priority 2016, published 2020).

For one test, the system named is HCT116 cells. Put plainly: Combination with Example 24, inhibitory effect on sphere-forming ability (Test Example 6). It counts as cell-based, human. Conditions: HCT116 sphere culture, test compound combined with Example 24 (2-1000 nmol/L), 4 days.
For the next test, the system named is H460 cells. The description is as above. It counts as cell-based, human. Conditions: H460 sphere culture, test compound combined with Example 24 (2-1000 nmol/L), 4 days.
The test system of another test is HCT-116 cells. Put plainly: Anti-tumor effect to HCT-116 tumor-bearing mouse (Test Example 2). The class given is in vivo. The conditions noted are these: oral, read-out: T/C (%); for response vs control in vivo at 150 mg/kg: dosage 150 mg/kg. From the text: The present compound can be used to evaluate the anti-tumor effect thereof. A 4 to 7-week-old nude mouse (BALB/cAnNCrj-nu/nu, female, CHARLES RIVER LABORATORIES JAPAN, INC.) received intradermal transplantation of HCT-116 cells (ATCC) in an amount of 3×10^6 cells/mouse around the ventral portion. The engraftment of HCT-116 cells was observed 5 to 14 days after the transplantation, and then each compound suspended in a solvent such as 0.5% methylcellulose solution was orally administrated to the mouse in a dose of 1 to 200 mg/kg one to twice daily. The tumor volume was measured over time after the administration to evaluate the effect for reducing the tumor volume by the administration of each compound. The tumor volume can be calculated from the minor axis and the major axis of the tumor measured with a digital caliper (Mitutoyo) according to the following formula:
Tumor volume [mm^3]=0.5×minor axis [mm]×(major axis [mm])^2
The tumor volume in control administration group treated with only a solvent such as 0.5% methylcellulose solution was compared with that of the present compound administration group, and T/C value was calculated according the following formula to evaluate the anti-tumor effect of the present compound.
T/C(%)=(the tumor volume at the end of administration in the present compound administration group−the tumor volume at the start of administration in the present compound administration group)/(the tumor volume at the end of administration in the control administration group−the tumor volume at the start of administration in the control administration group)×100
The T/C values (%) of the present compound on each dosage and administration period in the HCT-116 tumor-bearing mouse are shown below.

The test system of a further test is LNCap cells. Put plainly: Combination with Example 24, inhibitory effect on sphere-forming ability (Test Example 6). It counts as cell-based. Conditions: LNCap sphere culture, test compound combined with Example 24 (2-1000 nmol/L), 4 days.
[1] abbreviates: HCT-116, 456 h, administration period 19 day.

Structures can show the parent of a compound that is named as a salt. Where two headings read alike, the source gives them in different places.

Method for H460 cells: (§1) After the culture, CellTiterGlo (Promega) was added into all of the wells, and the plate is allowed to stand at room temperature for 10 minutes to measure the intensity of luminescence of each well. […] The formula for calculating the rate is shown below.
(§2) Sphere formation rate (%)=(Lsample)/(Lcontrol)×100
(§3) The value obtained by dividing the sphere formation rate by 100 and subtracting the calculated value from 1 is defined as a sphere formation inhibitory effect. The formula for calculating the effect is shown below.
(§4) Sphere formation inhibitory effect=1−(Sphere formation rate/100)
(§5) Also, the measured cell survival rate of the combination was defined as (Ld).
(§6) The minimum value thereof (sCI) was used as the criteria for screening.
Method for LNCap cells: as §1, §2, §3, §4, §5, §6

As for `CCCCCCCCc1ccc(CCC(N)(CO)CO)cc1` [Fingolimod], the “sCI, minimum (Ld)/(Lc)” value is 0.013 in the test with HCT116 cells and 0.007 in the test with H460 cells.

Take `COC1=CC(c2cc3ccccc3[nH]2)=N/C1=C\c1[nH]c(C)cc1C` [Obatoclax]: the figures for the “sCI, minimum (Ld)/(Lc)” value in the test with HCT116 cells and in the test with H460 cells were 0.103 and 0.061, respectively.

Regarding `COc1ccc(C(=O)Nc2cn(Cc3ccc(F)c(F)c3)cn2)cc1OC` [Example 11-2], the response vs control in vivo at 150 mg/kg with HCT-116 cells (setting [1]) worked out at 52%.

For the compound `CNC(=O)c1ccc(N2C(=S)N(c3ccc(C#N)c(C(F)(F)F)c3)C(=O)C2(C)C)cc1F` [Enzalutamide], the “sCI, minimum (Ld)/(Lc)” value in the test with LNCap cells is on record as 0.826.

With `CS(=O)(=O)CCNCc1ccc(-c2ccc3ncnc(Nc4ccc(OCc5cccc(F)c5)c(Cl)c4)c3c2)o1` [Lapatinib], the “sCI, minimum (Ld)/(Lc)” value with HCT116 cells was determined as 0.024; in the test on H460 cells it was 0.076.

In the case of `O=C(/C=C/c1cccnc1)Nc1cn(Cc2cccc(Cl)c2)cn1` [Example 9-2, (2E)-N-(1-(3-Chlorobenzyl)-1H-imidazol-4-yl)-3-(pyridin-3-yl)prop-2-enamide dihydrochloride], in the test on HCT-116 cells (HCT-116, 384 h, administration period 16 day), the response vs control in vivo at 150 mg/kg was 65%.

As to `Cc1nc(Nc2ncc(C(=O)Nc3c(C)cccc3Cl)s2)cc(N2CCN(CCO)CC2)n1` [Dasatinib], the “sCI, minimum (Ld)/(Lc)” value in the test on HCT116 cells came out at 0.171; in the test on H460 cells, 0.514.

In the case of `COc1ccc(C(=O)Nc2cn(Cc3cc(F)cc(F)c3)cn2)cc1OC` [Example 12-2], the response vs control in vivo at 150 mg/kg with HCT-116 cells (setting [1]) is 84%.

As for `COc1ccc(C(=O)Nc2cn(Cc3cc(F)c(F)c(F)c3)cn2)cc1OC` [Example 13-2], the response vs control in vivo at 15 mg/kg in the test with HCT-116 cells (HCT-116, 528 h, dosage 15 mg/kg, administration period 22 day) was determined as 72%. In addition, the response vs control in vivo at 150 mg/kg in the test on HCT-116 cells (HCT-116, 528 h, administration period 22 day) is 45%.

Regarding `COc1ccc(C(=O)Nc2cn(Cc3cccc(Cl)c3)cn2)cc1OC` [Example 10-2, N-[1-(3-Chlorobenzyl)-1H-imidazol-4-yl]-3,4-dimethoxybenzamide hydrochloride], the response vs control in vivo at 150 mg/kg with HCT-116 cells (setting [1]) was found to be 53%.

As to `CC[C@@H]1C(=O)N(C)c2cnc(Nc3ccc(C(=O)NC4CCN(C)CC4)cc3OC)nc2N1C1CCCC1` [BI 2536], the “sCI, minimum (Ld)/(Lc)” value in the test on HCT116 cells amounted to 0.623.

As to Raloxifen, the “sCI, minimum (Ld)/(Lc)” value with HCT116 cells worked out at 0.010.

Consider `CC(O)(CS(=O)(=O)c1ccc(F)cc1)C(=O)Nc1ccc(C#N)c(C(F)(F)F)c1` (stereo not drawn) [Bicalutamide], for which the “sCI, minimum (Ld)/(Lc)” value in the test on LNCap cells is listed as 0.421.

For the compound `CCC(C)(C)C(=O)O[C@H]1C[C@@H](C)C=C2C=C[C@H](C)[C@H](CC[C@@H]3C[C@@H](O)CC(=O)O3)[C@H]21` [Simvastatin], the “sCI, minimum (Ld)/(Lc)” value in the test with HCT116 cells stood at 0.257.

For `O=C(Nc1ccccc1-c1cn2c(CN3CCNCC3)csc2n1)c1cnc2ccccc2n1` [SRT1720], the “sCI, minimum (Ld)/(Lc)” value with HCT116 cells was determined as 0.007.

For the compound `CN1CCC(CNc2ccc3ncc(-c4cccc(OC(F)(F)F)c4)n3n2)CC1` [SGI-1776], the “sCI, minimum (Ld)/(Lc)” value in the test on HCT116 cells amounted to 0.026.

With `CC[C@H](C)C(=O)O[C@H]1C[C@@H](C)C=C2C=C[C@H](C)[C@H](CC[C@@H]3C[C@@H](O)CC(=O)O3)[C@H]21` [Lovastatin], the “sCI, minimum (Ld)/(Lc)” value in the test on HCT116 cells turned out to be 0.150.

On to `CN(C)CCOc1ccc(/C(=C(/CCCl)c2ccccc2)c2ccccc2)cc1` [Toremifene], for which the “sCI, minimum (Ld)/(Lc)” value with HCT116 cells was 0.020.

For `CC/C(=C(\c1ccccc1)c1ccc(OCCN(C)C)cc1)c1ccccc1` [Tamoxifen], in the test on HCT116 cells, the “sCI, minimum (Ld)/(Lc)” value came to 0.046.
